From ChEMBL document CHEMBL4613258, “Distribution of Bibenzyls, Prenyl Bibenzyls, Bis-bibenzyls, and Terpenoids in the Liverwort Genus Radula” (J Nat Prod, 2020)
Values after ≈ are worked out from the molar mass of the structure shown. Values belong to the compound of their own block, whether it stands above or below them.

Columns and labels:
RAW264.7 = assay: Inhibition of LPS-induced NO-production in mouse RAW264.7 cells at 4.5 to 20 uM incubated for 24 hrs by Griess reagent based assay relative to control; type: functional
[1] = Inhibition of calmodulin (unknown origin); settings: Homo sapiens
[2] = test system: Trichostrongylus colubriformis; assay: Antiparasitic activity against Trichostrongylus colubriformis; type: functional, organism-based
[3] = test system: Trichophyton mentagrophytes; assay: Antifungal activity against Trichophyton mentagrophytes; type: functional
Candida albicans = assay: Antifungal activity against Candida albicans; type: functional
MRC5 = assay: Cytotoxicity against human MRC5 cells; type: functional, cell-based
KB = assay: Cytotoxicity against human KB cells; type: functional; settings: read-out: ED50 (the source's name)
Cyclooxygenase = Cyclooxygenase (Homo sapiens, UniProt P35354+P23219); assay: Inhibition of COX (unknown origin); type: protein assay
Macrophage = assay: Inhibition of superoxide anion radical release in guinea pig macrophages; type: functional, cell-based; settings: Cavia porcellus
Staphylococcus aureus = assay: […] activity against Staphylococcus aureus; type: functional
[4] = Antioxidant activity assessed as DPPH radical scavenging activity at 50 ug/ml relative to control; type: functional
NCI-H1299 = assay: Cytotoxicity against human NCI-H1299 cells; type: functional, cell-based
[5] = test system: Trichostrongylus colubriformis; assay: Antiparasitic activity against Trichostrongylus colubriformis assessed as inhibiton of parasite growth at 0.7 ug/ml relative to control; type: functional
[6] = target: Vasopressin V1a receptor (Homo sapiens) (UniProt P37288); assay: Antagonist activity at vasopressin (unknown origin)
[7] = Inhibition of DNA polymerase beta (unknown origin); parameters: species or system Homo sapiens

Vasopressin V1a receptor (Homo sapiens), sequence (P37288 whole entry, looked up): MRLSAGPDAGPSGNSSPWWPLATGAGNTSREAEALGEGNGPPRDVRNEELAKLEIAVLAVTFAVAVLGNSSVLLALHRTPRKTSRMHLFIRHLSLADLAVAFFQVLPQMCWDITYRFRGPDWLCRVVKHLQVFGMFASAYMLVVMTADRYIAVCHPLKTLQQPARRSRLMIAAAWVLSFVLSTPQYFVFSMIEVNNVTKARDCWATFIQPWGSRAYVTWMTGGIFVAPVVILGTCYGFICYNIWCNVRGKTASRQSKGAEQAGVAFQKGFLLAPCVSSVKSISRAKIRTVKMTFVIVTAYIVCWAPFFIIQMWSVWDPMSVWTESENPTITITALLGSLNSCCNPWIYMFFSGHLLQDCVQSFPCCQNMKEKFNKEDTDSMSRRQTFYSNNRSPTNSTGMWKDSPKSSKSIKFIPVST

- ID50 [1]: 95 µg/mL (≈ 339 µM)
Compound: CC1=CCc2c(O)cc(CCc3ccccc3)cc2OC1
- inhibition (INH) (RAW264.7): 50%

- IC50 [2]: 0.13 µg/mL (≈ 0.569 µM)
- MIC [3]: 62.5 µg/mL (≈ 274 µM)
- MIC (Candida albicans): 125 µg/mL (≈ 548 µM)
Compound: COc1cccc(CCc2ccc(O)cc2)c1

- ID50 [1]: 3.5 µg/mL (≈ 11.7 µM)
Compound: CC(C)=CCc1c(CCc2ccccc2)cc(O)c(O)c1O

- MIC (Staphylococcus aureus): 20 µg/mL (≈ 57.1 µM)
- ID50 [1]: 4 µg/mL (≈ 11.4 µM)
Compound: CC(C)=CCC/C(C)=C/Cc1c(O)cc(O)cc1CCc1ccccc1
- inhibition (INH) (RAW264.7): 50%

- ID50 [1]: 4.9 µg/mL (≈ 17.4 µM)
Compound: CC(C)=CCc1c(O)cc(O)cc1CCc1ccccc1
- Activity [4]: 28%

- ID50 [6]: 27 µg/mL (≈ 91.1 µM)
- MIC (Staphylococcus aureus): 3 µg/mL (≈ 10.1 µM)
Compound: COc1cc(CCc2ccccc2)cc(O)c1CC=C(C)C

- ID50 [1]: 18.5 µg/mL (≈ 54.4 µM)
Compound: CC1=CCc2c(cc(CCc3ccc(O)cc3)c(C(=O)O)c2O)OC1

- ID50 [1]: 2 µg/mL (≈ 6.75 µM)
Compound: C=C(C)[C@H]1Cc2c(CCc3ccccc3)cc(O)c(O)c2O1

The next lines start with the compound.

Compound: Oc1cccc(CCc2ccc(Oc3cc(CCc4cccc(O)c4)ccc3O)cc2)c1
- IC50 (MRC5): 7.46 µg/mL (≈ 17.5 µM)
- EC50 (KB): 12.5 µg/mL (≈ 29.3 µM)

Compound: C[C@]12COc3cc(CCc4ccccc4)c(C(=O)O)c(O)c3[C@H]1C2
- IC50 (Cyclooxygenase): 39.7 µM
- inhibition (INH) (RAW264.7): 50%
- IC50 (Macrophage): 6 µg/mL (≈ 18.5 µM)

Compound: COC(=O)c1c(CCc2ccccc2)cc(O)c(CC=C(C)C)c1O
- IC50 (NCI-H1299): 5.1 µM

Compound: CC1=CCc2c(O)cc(CCc3ccccc3O)cc2OC1
- inhibition (INH) (RAW264.7): 50%

Compound: COc1ccc(CCc2cccc(OC)c2)cc1
- inhibition at 0.7 µg/mL [5]: 30%

Compound: Oc1cccc(CCc2ccc(Oc3cc(CCc4cccc(O)c4)cc(O)c3O)cc2)c1 [PERROTETTIN F]
- IC50 [7]: 97.5 to 114 µM
- EC50 (KB): 20 µg/mL (≈ 45.2 µM)
